# pIC50, pKi: −log10 of the molar value. “And” between values parts separate entries of the source, which are not always exact repeats. Equal entries are not always repeated. Where two headings read alike, the source gives them in different places.
# Assays:
# METH-associated memory = assay: METH-associated memory, conditioned place preference (CPP) assay; type: in vivo, mice and rats; conditions: single intra-BLC or IP administration (IP 10 mg/kg)
# Description: In 2013, we published the finding that depolymerization of actin in the AMY disrupts the storage of METH-associated memories in a selective, retrieval-independent manner^65. Because of the limited clinical potential of actin depolymerizing agents, we turned to NMII, a molecular motor we previously found to be a key regulator of memory, synaptic plasticity (long-term potentiation [LTP]) and actin polymerization in dendritic spines^59 63. Through a series of experiments in a recently published studies, we detailed NMII's potential as a therapeutic target for SUD relapse^52,74-76.
# (§1) The potential for systemic NMII inhibition to selectively target METH-associated memories in the way that intra-AMY administration does was also investigated. […] IP administered Blebbistatin also disrupts reconsolidation of memories for cocaine, nicotine and mephedrone, a result with additional potential therapeutic relevance in treating relapse^75-76. In addition, the BLC spine density increase that accompanies a METH-associated memory is reversed by Blebbistatin (FIG. 3C), without altering the spine density increase associated with a fear memory (FIG. 3D)^65, 74.
# BLC spine density = BLC spine density associated with memory; conditions: in vivo
# Description: FIG. 3(A,B,C,D): Systemic NMII inhibition selectively targets the storage of (A) a METH-associated memory, (B) having no effect on an auditory fear memory. Similarly, spine density associated with a METH-associated memory (C), but not a fear memory (D), is reduced.
# as §1
# [1] = tested on: polydrug-associated memories; assay: Polydrug-associated memory CPP (METH/NIC, METH/MOR); type: in vivo, mice; conditions: Test 1 and Test 2, drugs on alternating days
# Procedure: FIG. 6(A,B,C,D,E): Nonmuscle myosin II inhibition disrupts polydrug-associated memories when the drugs are administered on alternating days (A) Schematic of the experimental design. […] METH/NIC: Veh n=10; METH/NIC: Blebb n=10; METH/MOR: Veh n=19; METH/MOR: Blebb n=19; * p<0.05, ** p<0.01, *** p<0.001. Error bars represent±s.e.m.
# The vast majority of individuals with substance use disorder are polydrug users. For example, most METH users also smoke. We recently made an unexpected discovery with direct relevance to polydrug use^76. When animals are treated with both METH and a drug that is impervious to Blebb on its own (nicotine or morphine), either concurrently or on alternating days, the nicotine and morphine memories become susceptible to immediate disruption by Blebb, akin to the effect on METH alone memories (FIG. 6). Thus, memories for previously impervious drugs of abuse become susceptible to NMII inhibition when METH associations are also formed. Importantly, this occurs when associative training is performed with METH and the other drug of abuse being administered simultaneously or separately, on different days. We are currently expanding our analysis to other commonly abused drugs, including other opioids, such as heroin, alcohol, cocaine and synthetic cathinones.
# Bovine cardiac myosin = Bovine cardiac myosin (Bos taurus (Bovine), UniProt Q9BE39); assay: Cardiac muscle myosin II actin-activated ATPase assay (NADH-coupled); type: biochemical
# In short: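 NADH-coupled (PK/LDH) assay at 25° C: 300 nM bovine cardiac myosin, 10 μM rabbit F-actin, 1 mM ATP, 1 mM PEP, 220 μM NADH, MOPS pH 7.0, 0.5% DMSO. NADH fluorescence was followed for 30 min; Ki values came from 16-point triplicate data (top 50 uM) fitted to a quadratic one-to-one binding model.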
# various myosin IIs = conditions: reported in the literature; read-out: biochemical IC50 values in various myosin IIs; cited from earlier work
# Rabbit skeletal myosin = assay: Skeletal muscle myosin II actin-activated ATPase assay; type: biochemical; conditions: 20 nM skeletal muscle myosin II; read-out: SKMMII KI
# In short: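 NADH-coupled (PK/LDH) actin-activated ATPase at 25 °C with 20 nM rabbit skeletal myosin II, 10 μM F-actin, 1 mM ATP, 1 mM PEP, 220 μM NADH in MOPS pH 7.0, MgCl2, EGTA, BSA, DTT, 0.5% DMSO. NADH fluorescence followed 30 min; inhibitory constants from 16-point triplicate curves (top 50 uM), quadratic one-to-one fit.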
# Sequence of Bovine cardiac myosin (Q9BE39 whole entry): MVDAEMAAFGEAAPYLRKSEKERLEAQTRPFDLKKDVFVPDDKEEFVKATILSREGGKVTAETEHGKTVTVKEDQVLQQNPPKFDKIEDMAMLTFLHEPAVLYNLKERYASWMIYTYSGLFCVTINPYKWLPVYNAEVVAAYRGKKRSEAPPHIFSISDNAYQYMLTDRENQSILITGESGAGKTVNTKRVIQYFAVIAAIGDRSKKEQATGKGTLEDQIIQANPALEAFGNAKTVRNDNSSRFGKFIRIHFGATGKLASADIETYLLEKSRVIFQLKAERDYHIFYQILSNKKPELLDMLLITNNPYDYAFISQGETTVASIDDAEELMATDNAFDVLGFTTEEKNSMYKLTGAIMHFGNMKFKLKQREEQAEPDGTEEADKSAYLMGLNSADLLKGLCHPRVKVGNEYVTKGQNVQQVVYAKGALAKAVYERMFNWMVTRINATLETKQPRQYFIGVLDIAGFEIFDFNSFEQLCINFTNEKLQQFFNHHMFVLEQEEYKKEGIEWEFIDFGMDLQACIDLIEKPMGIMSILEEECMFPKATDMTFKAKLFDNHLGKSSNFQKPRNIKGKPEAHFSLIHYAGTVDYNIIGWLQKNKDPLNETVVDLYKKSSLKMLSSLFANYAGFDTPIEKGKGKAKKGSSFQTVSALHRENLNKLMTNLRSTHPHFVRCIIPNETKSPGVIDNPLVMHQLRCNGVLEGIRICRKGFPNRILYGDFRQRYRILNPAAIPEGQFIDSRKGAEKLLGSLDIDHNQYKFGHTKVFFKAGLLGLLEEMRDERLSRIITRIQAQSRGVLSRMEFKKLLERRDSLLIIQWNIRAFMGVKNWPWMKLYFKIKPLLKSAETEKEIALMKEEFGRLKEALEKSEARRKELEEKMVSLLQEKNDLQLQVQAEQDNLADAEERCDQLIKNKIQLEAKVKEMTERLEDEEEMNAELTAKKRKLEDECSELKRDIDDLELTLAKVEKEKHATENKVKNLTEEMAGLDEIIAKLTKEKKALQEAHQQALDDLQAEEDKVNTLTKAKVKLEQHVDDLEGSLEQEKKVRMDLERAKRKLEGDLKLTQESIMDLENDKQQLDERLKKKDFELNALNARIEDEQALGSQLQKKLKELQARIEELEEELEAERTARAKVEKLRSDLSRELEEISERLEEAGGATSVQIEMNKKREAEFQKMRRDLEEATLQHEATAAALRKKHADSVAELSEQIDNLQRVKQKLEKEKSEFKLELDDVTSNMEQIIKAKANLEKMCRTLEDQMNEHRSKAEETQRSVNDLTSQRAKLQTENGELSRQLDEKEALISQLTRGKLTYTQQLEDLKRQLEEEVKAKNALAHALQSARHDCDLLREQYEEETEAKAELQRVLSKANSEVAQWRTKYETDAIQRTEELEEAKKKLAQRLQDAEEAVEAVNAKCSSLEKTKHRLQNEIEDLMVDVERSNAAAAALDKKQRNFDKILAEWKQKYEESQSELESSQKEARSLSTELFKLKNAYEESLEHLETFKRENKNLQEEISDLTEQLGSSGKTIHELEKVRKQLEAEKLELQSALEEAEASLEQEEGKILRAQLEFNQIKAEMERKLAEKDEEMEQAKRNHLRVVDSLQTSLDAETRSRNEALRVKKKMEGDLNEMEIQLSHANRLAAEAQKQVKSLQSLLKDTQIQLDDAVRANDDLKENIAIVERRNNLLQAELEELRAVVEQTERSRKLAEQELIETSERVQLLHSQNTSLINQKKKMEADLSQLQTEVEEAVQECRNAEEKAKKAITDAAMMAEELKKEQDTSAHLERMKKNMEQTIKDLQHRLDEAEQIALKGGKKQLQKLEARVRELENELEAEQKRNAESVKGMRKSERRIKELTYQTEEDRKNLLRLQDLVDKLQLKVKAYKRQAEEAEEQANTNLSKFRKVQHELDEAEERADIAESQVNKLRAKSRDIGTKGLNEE
# Sequence of Bovine cardiac myosin (P85100 whole entry partner): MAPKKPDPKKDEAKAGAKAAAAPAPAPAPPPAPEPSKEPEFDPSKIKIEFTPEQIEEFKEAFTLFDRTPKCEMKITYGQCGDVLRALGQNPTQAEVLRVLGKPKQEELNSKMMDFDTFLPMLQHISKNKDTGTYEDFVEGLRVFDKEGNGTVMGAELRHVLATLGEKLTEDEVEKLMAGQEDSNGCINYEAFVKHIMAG
# Sequence of Bovine cardiac myosin (Q3SZE5 whole entry partner): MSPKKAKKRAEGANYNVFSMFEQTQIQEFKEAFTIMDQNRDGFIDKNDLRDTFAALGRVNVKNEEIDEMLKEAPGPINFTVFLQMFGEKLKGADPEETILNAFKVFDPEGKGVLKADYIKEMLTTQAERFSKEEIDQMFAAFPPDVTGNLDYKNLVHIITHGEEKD
smiles,measurement,setting,value
"Cc1ccc2c(c1)C(=O)[C@]1(O)CCN(c3ccccc3)C1=N2 [Blebbistatin, reference compound]",METH-associated memory,METH-associated memory; listed as Blebb,disrupt a METH-associated memory
same,METH-associated memory,METH-associated memory; listed as blebbistatin,disrupted
same,BLC spine density increase accompanying a METH-associated memory,BLC spine density,reversed
same,METH/MOR CPP,[1],did not demonstrate a significant METH/MOR CPP during either test
same,METH/NIC CPP,[1],did not demonstrate a significant METH/NIC CPP during either test
same,pKi,"Bovine cardiac myosin; 300 nM cardiac myosin, 10 μM actin, 25° C., read-out: CMMII KI",5.82
same,CMMII/NMII Ratio,Bovine cardiac myosin; cardiac Ki relative to NMII EC50,0.56
same,pKi,"Bovine cardiac myosin; cardiac muscle myosin II, read-out: CMMII Ki",6.17
same,Ratio CMMII:NMII Ki/EC50,Bovine cardiac myosin; cardiac myosin II Ki over nonmuscle myosin II EC50,0.789 and 0.8
same,pIC50,various myosin IIs,5.05 to 5.74
same,pKi,Rabbit skeletal myosin,6.44

# Source: patent US20250163056A1, “NONMUSCLE MYOSIN II INHIBITORS” (The University of Florida Research Foundation, Inc., priority 2018, published 2025)
